In patent US7118895B2, “Process for producing aglycon by using diglycosidase and flavor-improved food containing the aglycon and converting agent to be used in the process” (Amano Enzyme Inc., priority 2000, dated 2006):

Tested on: Crude diglycosidase
Test: Examination of pH in the conversion into isoflavone aglycons by diglycosidase using soybean materials
Assay type: biochemical, Penicillium multicolor IAM7153
Parameters: Decomposition efficiency of genistin family in soymilk / Decomposition efficiency of genistin family in defatted soybean / Decomposition efficiency of daidzin family in defatted soybean: concentration or dose not given beside the values
Conditions: for Decomposition efficiency of genistin family in roasted soy flour: 55° C.
Experimental: A substrate solution of 450 μL was prepared by suspending 50 mg of each soybean material (roasted soy flour (manufactured by Fuji Shokuryo K.K.), soymilk (manufactured by Gitoh Shokuhin K.K.), defatted soybean (manufactured by Fuji Seiyu K.K.), concentrated soybean protein (manufactured by Fuji Seiyu K.K.)), and adjusting the pH to 2 to 11 with hydrochloric acid or sodium hydroxide. Each enzyme solution of pH 2–11 wherein diglycosidase activity of crude diglycosidase was adjusted to 1.88 AU/mL was added thereto in an amount of 50 μL and the whole was reacted at 55° C. at the total volume of 500 μL. To the reaction mixture was added 700 μL of ethanol after 0, 1, 3, and 6 hours of the reaction. After stirring and ultrasonication, the mixture was subjected to centrifugal separation at 15,000 rpm and 4° C. for 10 minutes. The supernatant was filtered through a filter and the existence of isoflavone glycosides and aglycon isoflavones contained in the reaction mixture was detected by HLPC (Tables 15 to 26).

[1] = pH4.8, heat treatment of enzyme: no, reaction time 0 h
[2] = pH4.8, heat treatment of enzyme: no, reaction time 1 h
[3] = pH4.8, heat treatment of enzyme: no, reaction time 3 h
[4] = pH4.8, heat treatment of enzyme: no, reaction time 6 h
[5] = pH4.8, heat treatment of enzyme: yes, reaction time 6 h

Decomposition efficiency of genistin family in concentrated soybean protein (pH1.6, heat treatment of enzyme: no, reaction time 0 h): 42.5%
Decomposition efficiency of genistin family in concentrated soybean protein (pH1.6, heat treatment of enzyme: no, reaction time 1 h): 42.2%
Decomposition efficiency of genistin family in concentrated soybean protein (pH1.6, heat treatment of enzyme: no, reaction time 3 h): 40.6%
Decomposition efficiency of genistin family in concentrated soybean protein (pH1.6, heat treatment of enzyme: no, reaction time 6 h): 38.9%
Decomposition efficiency of genistin family in concentrated soybean protein (pH1.6, heat treatment of enzyme: yes, reaction time 6 h): 37.7%
Decomposition efficiency of genistin family in roasted soy flour (pH2, heat treatment of enzyme no, reaction time 0 h): 45.2
Decomposition efficiency of genistin family in roasted soy flour (pH2, heat treatment of enzyme no, reaction time 1 h): 45.0
Decomposition efficiency of genistin family in roasted soy flour (pH2, heat treatment of enzyme no, reaction time 3 h): 43.1
Decomposition efficiency of genistin family in roasted soy flour (pH2, heat treatment of enzyme no, reaction time 6 h): 40.7
Decomposition efficiency of genistin family in roasted soy flour (pH2, heat treatment of enzyme yes, reaction time 6 h): 41.2
Decomposition efficiency of genistin family in soymilk (pH2.3, heat treatment of enzyme: no, reaction time 0 h): 0.6%
Decomposition efficiency of genistin family in soymilk (pH2.3, heat treatment of enzyme: no, reaction time 1 h): 0.7%
Decomposition efficiency of genistin family in soymilk (pH2.3, heat treatment of enzyme: no, reaction time 3 h): 0.8%
Decomposition efficiency of genistin family in soymilk (pH2.3, heat treatment of enzyme: no, reaction time 6 h): 0.6%
Decomposition efficiency of genistin family in soymilk (pH2.3, heat treatment of enzyme: yes, reaction time 6 h): 0.6%
Decomposition efficiency of genistin family in defatted soybean (pH2.6, heat treatment of enzyme: no, reaction time 0 h): 1.8%
Decomposition efficiency of genistin family in defatted soybean (pH2.6, heat treatment of enzyme: no, reaction time 1 h): 1.7%
Decomposition efficiency of genistin family in defatted soybean (pH2.6, heat treatment of enzyme: no, reaction time 3 h): 1.7%
Decomposition efficiency of genistin family in defatted soybean (pH2.6, heat treatment of enzyme: no, reaction time 6 h): 1.9%
Decomposition efficiency of genistin family in defatted soybean (pH2.6, heat treatment of enzyme: yes, reaction time 6 h): 1.6%
Decomposition efficiency of genistin family in concentrated soybean protein (pH2.7, heat treatment of enzyme: no, reaction time 0 h): 42.5%
Decomposition efficiency of genistin family in concentrated soybean protein (pH2.7, heat treatment of enzyme: no, reaction time 1 h): 44.3%
Decomposition efficiency of genistin family in concentrated soybean protein (pH2.7, heat treatment of enzyme: no, reaction time 3 h): 43.7%
Decomposition efficiency of genistin family in concentrated soybean protein (pH2.7, heat treatment of enzyme: no, reaction time 6 h): 44.0%
Decomposition efficiency of genistin family in concentrated soybean protein (pH2.7, heat treatment of enzyme: yes, reaction time 6 h): 42.5%
Decomposition efficiency of genistin family in roasted soy flour (pH3, heat treatment of enzyme no, reaction time 0 h): 45.2
Decomposition efficiency of genistin family in roasted soy flour (pH3, heat treatment of enzyme no, reaction time 1 h): 45.2
Decomposition efficiency of genistin family in roasted soy flour (pH3, heat treatment of enzyme no, reaction time 3 h): 41.9
Decomposition efficiency of genistin family in roasted soy flour (pH3, heat treatment of enzyme no, reaction time 6 h): 43.5
Decomposition efficiency of genistin family in roasted soy flour (pH3, heat treatment of enzyme yes, reaction time 6 h): 45.1
Decomposition efficiency of genistin family in defatted soybean (pH3.4, heat treatment of enzyme: no, reaction time 0 h): 1.8%
Decomposition efficiency of genistin family in defatted soybean (pH3.4, heat treatment of enzyme: no, reaction time 1 h): 1.5%
Decomposition efficiency of genistin family in defatted soybean (pH3.4, heat treatment of enzyme: no, reaction time 3 h): 1.1%
Decomposition efficiency of genistin family in defatted soybean (pH3.4, heat treatment of enzyme: no, reaction time 6 h): 0.8%
Decomposition efficiency of genistin family in defatted soybean (pH3.4, heat treatment of enzyme: yes, reaction time 6 h): 1.8%
Decomposition efficiency of genistin family in soymilk (pH3.5, heat treatment of enzyme: no, reaction time 0 h): 0.6%
Decomposition efficiency of genistin family in soymilk (pH3.5, heat treatment of enzyme: no, reaction time 1 h): not detected
Decomposition efficiency of genistin family in soymilk (pH3.5, heat treatment of enzyme: no, reaction time 3 h): not detected
Decomposition efficiency of genistin family in soymilk (pH3.5, heat treatment of enzyme: no, reaction time 6 h): not detected
Decomposition efficiency of genistin family in soymilk (pH3.5, heat treatment of enzyme: yes, reaction time 6 h): 0.5%
Decomposition efficiency of genistin family in concentrated soybean protein (pH3.7, heat treatment of enzyme: no, reaction time 0 h): 43.1%
Decomposition efficiency of genistin family in concentrated soybean protein (pH3.7, heat treatment of enzyme: no, reaction time 1 h): 43.5%
Decomposition efficiency of genistin family in concentrated soybean protein (pH3.7, heat treatment of enzyme: no, reaction time 3 h): 36.9%
Decomposition efficiency of genistin family in concentrated soybean protein (pH3.7, heat treatment of enzyme: no, reaction time 6 h): 30.7%
Decomposition efficiency of genistin family in concentrated soybean protein (pH3.7, heat treatment of enzyme: yes, reaction time 6 h): 43.0%
Decomposition efficiency of genistin family in roasted soy flour (pH4, heat treatment of enzyme no, reaction time 0 h): 45.4
Decomposition efficiency of genistin family in roasted soy flour (pH4, heat treatment of enzyme no, reaction time 1 h): 36.3
Decomposition efficiency of genistin family in roasted soy flour (pH4, heat treatment of enzyme no, reaction time 3 h): 23.4
Decomposition efficiency of genistin family in roasted soy flour (pH4, heat treatment of enzyme no, reaction time 6 h): 13.4
Decomposition efficiency of genistin family in roasted soy flour (pH4, heat treatment of enzyme yes, reaction time 6 h): 45.4
Decomposition efficiency of genistin family in defatted soybean [1]: 1.8%
Decomposition efficiency of genistin family in soymilk [1]: 0.5%
Decomposition efficiency of genistin family in defatted soybean [2]: 1.0%
Decomposition efficiency of genistin family in soymilk [2]: not detected
Decomposition efficiency of genistin family in defatted soybean [3]: 0.6%
Decomposition efficiency of genistin family in soymilk [3]: not detected
Decomposition efficiency of genistin family in defatted soybean [4]: 0.4%
Decomposition efficiency of genistin family in soymilk [4]: not detected
Decomposition efficiency of genistin family in defatted soybean [5]: 1.3%
Decomposition efficiency of genistin family in soymilk [5]: 0.6%
Structure (SMILES): CC(=O)OC[C@H]1O[C@@H](Oc2cc(O)c3c(=O)c(-c4ccc(O)cc4)coc3c2)[C@H](O)[C@@H](O)[C@@H]1O [acetylgenistin, 6″-O-acetylgenistin]
